Assay results: patent US20100104629A1, “CATIONIC LIPIDS AND USES THEREOF” (ABBOTT LABORATORIES, priority 2008, published 2010)

How the values were obtained:
[1] = tested on: β-galactosidase in tumor sections; assay: IHC analysis of β-galactosidase in intraliver tumors after i.v. dosing of formulated siRNA; type: in vivo, Scid female mice; parameters: key to β-galactosidase IHC staining score, column 1 / β-galactosidase IHC staining score, column 2 / β-galactosidase IHC staining score, column 3 / β-galactosidase IHC staining score, column 4 / β-galactosidase IHC staining score, column 5 / β-galactosidase IHC staining score, column 6: −: there was no staining, a small area of weak staining, or disperse strong single cell staining; +/−: there was 5% of the section with weak staining or one patch of strong staining; +: there was 15% of the section with strong staining; ++: there was ˜50% of the section with strong straining; +++: there was 80% of the section with strong straining; ++++: the whole section had strong staining
Protocol: The animal studies were carried out in accordance with internal Institutional Animal Care and Use Committee (IACUC) guidelines at Abbott Laboratories. Scid female mice at 6 to 8 weeks of age were obtained from Charles River Laboratory and used for intraliver tumor models. Mouse livers were exposed by vertical incision on mouse abdomens and the tumor cells were directly injected into the livers. The incision was closed by suture and wound clips. All cell lines used for creating xenograft tumors were subjected to the IMPACT profile I test (18 agents) at the University of Missouri Research Animal Diagnostic and Investigative Laboratory, and all cell lines were found negative for the 18 infectious agents tested. Tumor cells were suspended in a 1:1 mixture of S-MEM (Invitrogen, Carlsbad, Calif.) and matrigel (BD Bioscience, San Jose, Calif.) and inoculated at 1×10E6 cells per animal.
Treatments were started 3˜4 weeks after tumor inoculation. Formulated or unformulated siRNAs were administrated via tail vein (i.v) injection.
IHC was carried out as previously described [Li, L., et al., Evaluating hypoxia-inducible factor-1alpha as a cancer therapeutic target via inducible RNA interference in vivo. Cancer Res, 2005. 65(16): p. 7249-58]. Briefly, tumors were excised, cut into pieces of less than 3 mm in thickness and immediately fixed in buffered formalin solution with neutral pH (Sigma, St. Louis, Mo.). The formalin-fixed and paraffin-embedded tumor sections were then used for staining The mouse anti-β-galactosidase mAb (Promega, Madison, Wis.) was used to detect β-galactosidase in tumor sections. DAB (3,3′-diaminobenzidine) was used as the chromogen. IHC images were acquired using the Nikon TE2000 inverted microscope. The β-galactosidase staining was evaluated by 2 people independently based on the scoring system listed below. The average of the score was calculated for each tumor.
−, there was no staining, a small area of weak staining, or disperse strong single cell staining +/−, there was 5% of the section with weak staining or one patch of strong staining +, there was 15% of the section with strong staining ++, there was ˜50% of the section with strong straining +++, there was 80% of the section with strong straining ++++, the whole section had strong staining

MDA435-TetR-Luc cells = assay: Transfection efficiency of MDA435-TetR-Luc cells with Lipid-Based Particles (TetRLuc assay); type: cell-based; details: formulation employing the cationic lipid
Protocol: To determine the knockdown efficacy of Lipid-Based Particles in an in vitro assay, MDA435-TetR-Luc cells (The positive readout reporter cell line MDA435-TetR-Luc contained a stably integrated copy of the luciferase gene expressed from a CMV promoter containing the tetR operator site. In addition, gene coding for a destabilized TetR protein was expressed in this cell line.) were plated in 96 well plate at a density of 10K cells per well in 100 ul of DMEM (Dulbecco's Modified Eagles Medium, Invitrogen Corp.) containing 10% fetal bovine serum (Invitrogen Corp.). Appropriate dilutions of Lipid-Based Particles were made in DMEM+10% fetal bovine serum medium, 10 ul of the diluted material was transferred into each well in triplicate. Transfected cells were further incubated at 37° C. for a period of 72 hours. […] The graphs represent average of triplicate readings of the Lipid-Based Particles treated sample divided by the average of readings from 9 wells treated with doxycycline.
The ability of novel cationic lipids to transfect siRNA in vitro was evaluated in the TetRLuc assay. By utilizing a releasable PEG lipid as for examples in formulations “a” or “b”, the transfection efficiency of the unshielded or partially shielded particle may be determined.

C[C@H]1c2cccc(O)c2C(=O)C2=C(O)[C@]3(O)C(=O)C(C(N)=O)=C(O)[C@@H](N(C)C)[C@@H]3[C@@H](O)[C@@H]21 [Doxycycline]
β-galactosidase IHC staining score, column 1 ([1]; intraliver tumor, i.v. tail vein, column 1 of 6 (not further defined)): +++
β-galactosidase IHC staining score, column 2 ([1]; intraliver tumor, i.v. tail vein, column 2 of 6 (not further defined)): +++
β-galactosidase IHC staining score, column 3 ([1]; intraliver tumor, i.v. tail vein, column 3 of 6 (not further defined)): +++
β-galactosidase IHC staining score, column 4 ([1]; intraliver tumor, i.v. tail vein, column 4 of 6 (not further defined)): +++
β-galactosidase IHC staining score, column 5 ([1]; intraliver tumor, i.v. tail vein, column 5 of 6 (not further defined)): +++
β-galactosidase IHC staining score, column 6 ([1]; intraliver tumor, i.v. tail vein, column 6 of 6 (not further defined)): +++

CCCCC/C=C\C/C=C\CCCCCCCCOCC(CN1CCCC1)OCCCCCCCC/C=C\C/C=C\CCCCC (stereo not drawn) [Example 1, 1-(2,3-bis((9Z,12Z)-octadeca-9,12-dienyloxy)propyl)pyrrolidine]
in vitro transfection activity (MDA435-TetR-Luc cells): provided in vitro transfection activity
in vivo delivery ([1]; formulation employing the cationic lipid): efficient in vivo delivery

CCCCC/C=C\C/C=C\CCCCCCCCOCC(CN(CC)CC)OCCCCCCCC/C=C\C/C=C\CCCCC (stereo not drawn) [Example 57, N,N-diethyl-2,3-bis((9Z,12Z)-octadeca-9,12-dienyloxy)propan-1-amine]
in vitro transfection activity (MDA435-TetR-Luc cells): may diminish activity
